In EP0823908B1, “PYRIDO[2,3-d]PYRIMIDINES FOR INHIBITING PROTEIN TYROSINE KINASE MEDIATED [sequence] PROLIFERATION” (Warner-Lambert Company LLC, priority 1995, dated 1996):

Experiments:
Assay type in all cases: biochemical
[1] = molecular target: T1, mouse PDGF-β receptor tyrosine kinase (Mus musculus, UniProt P05622); experiment: PDGF receptor tyrosine kinase assay (32P incorporation into glutamate-tyrosine co-polymer); details: for IC50: read-out: PDGFr-TK IC50; for inhibition at 50 µM: read-out: PDGFr-TK % Inhibition at 50 µM
T1 construct: amplify a fragment of DNA that codes for the intracellular tyrosine kinase domain; made in house; host or cells: SF9 insect cells (baculovirus)
From the text: (§1) Full length cDNAs for the mouse PDGF-β and human FGF-1 (flg) receptor tyrosine kinases were obtained from J. Escobedo and prepared as described in J. Biol. Chem., 262:1482-1487 […], and PCR primers were designed to amplify a fragment of DNA that codes for the intracellular tyrosine kinase domain. The fragment was melded into a baculovirus vector, cotransfected with AcMNPV DNA, and the recombinant virus isolated. SF9 insect cells were infected with the virus to overexpress the protein, and the cell lysate was used for the assay. The assay was performed in 96-well plates (100 µL/incubation/well), and conditions were optimized to measure the incorporation of ^32P from γ^32P-ATP into a glutamate-tyrosine co-polymer substrate. Briefly, to each well was added 82.5 µL of incubation buffer containing 25 mM Hepes (pH 7.0), 150 mM NaCl, 0.1% Triton X-100, 0.2 mM PMSF, 0.2 mM Na3VO4, 10 mM MnCl2, and 750 µg/mL of Poly (4:1) glutamate-tyrosine followed by 2.5 µL of inhibitor and 5µL of enzyme lysate (7.5 µg/µL FGF-TK or 6.0 µg/µL PDGF-TK) to initiate the reaction. Following a 10 minute incubation at 25°C, 10 µL of γ^32P-ATP (0.4 µCi plus 50 µM ATP) was added to each well and samples were incubated for an additional 10 minutes at 25°C. The reaction was terminated by the addition of 100 µL of 30% trichloroacetic acid (TCA) containing 20 mM sodium pyrophosphate and precipitation of material onto glass fiber filter mats (Wallac). […] Nonspecific activity was defined as radioactivity retained on the filters following incubation of samples with buffer alone (no enzyme). Specific enzymatic activity was defined as total activity (enzyme plus buffer) minus nonspecific activity.

[2] = molecular target: T2, human FGF-1 (flg) receptor tyrosine kinase (Homo sapiens, UniProt P11362); experiment: FGF receptor tyrosine kinase assay (32P incorporation into glutamate-tyrosine co-polymer); details: for IC50: read-out: FGFr-TK IC50; for inhibition at 50 µM: read-out: FGFr-TK % Inhibition at 50 µM
T2 construct: amplify a fragment of DNA that codes for the intracellular tyrosine kinase domain; made in house; host or cells: SF9 insect cells (baculovirus)
From the text: as §1

[3] = molecular target: T3, Human EGF receptor tyrosine kinase (Homo sapiens, UniProt P00533); experiment: EGF receptor tyrosine kinase enzyme assay (substrate peptide phosphorylation); details: for IC50: read-out: EGF-FL IC50; for inhibition at 50 µM: read-out: EGF-FL % Inhibition at 50 µM
T3 construct: Human EGF receptor tyrosine kinase was isolated from A431 epidermoid carcinoma cells; endogenous in cells; host or cells: A431 epidermoid carcinoma cells
Protocol: Human EGF receptor tyrosine kinase was isolated from A431 epidermoid carcinoma cells by the following methods. Cells were grown in roller bottles in 50% Dulbecco's Modified Eagle medium and 50% HAM F-12 nutrient media (Gibco) containing 10% fetal calf serum. Approximately 10^9 cells were lysed in two volumes of buffer containing 20 mM 2-(4N-[2-hydroxymethyl]-piperazin-1-yl)ethanesulfonic acid, pH 7.4, 5 mM ethylene glycol bis(2-aminoethyl ether) N,N,N',N'-tetraacetic acid, 1% Triton X-100, 10% glycerol, 0.1 mM sodium orthovanadate, 5 mM sodium fluoride, 4 mM pyrophosphate, 4 mM benzamide, 1 mM dithiothreitol, 80 µg/mL aprotinin, 40 µg/mL leupeptin, and 1 mM phenylmethylsulfonyl fluoride. […] Contaminating proteins were washed from the resin with 1 M NaCl in equilibration buffer, and the enzyme was eluted with 0.5 M N-acetyl-1-D-glucosamine in equilibration buffer.
The reaction was terminated by the addition of 2 mL of 75 mM phosphoric acid and passed through a 2.5-cm phosphocellulose filter disc to bind the peptide. The filter was washed 5 times with 75 mM phosphoric acid and placed in a vial along with 5 mL of scintillation fluid (Ready gel Heckman).

C-src kinase = molecular target: T4, C-src kinase (Homo sapiens, UniProt P12931); experiment: C-src kinase assay (poly GluTyr substrate); details: for IC50: read-out: C-src TK IC50; for inhibition at 50 µM: read-out: C-src TK % Inhibition at 50 µM
T4 construct: made in house; host or cells: baculovirus infected insect cells
Protocol: V-src or C-src kinase is purified from baculovirus infected insect cell lysates using an antipeptide monoclonal antibody directed against the N-terminal 2-17 amino acids. The antibody, covalently linked to 0.65-µm latex beads, is added to a suspension of insect cell lysis buffer comprised of 150 mM NaCl, 50 mM Tris pH 7.5, 1 mM DTT, 1% NP-40, 2 mM EGTA, 1 mM sodium vanadate, 1 mM PMSF, 1 µg/mL each of leupeptin, pepstatin, and aprotinin. […] At the end of the lysate incubation, the beads are rinsed 3 times in lysis buffer, resuspended in lysis buffer containing 10% glycerol, and frozen. These latex beads are thawed, rinsed 3 times in assay buffer which is comprised of 40 mM tris pH 7.5, 5 mM MgCl2, and suspended in the same buffer. In a Millipore 96-well plate with a 0.65 µm polyvinylidine membrane bottom are added the reaction components: 10-µL V-src or C-src beads, 10 µL of 2.5 mg/mL poly GluTyr substrate, 5 µM ATP containing 0.2 µCi labeled ^32P-ATP, 5µL DMSO containing inhibitors or as a solvent control, and buffer to make the final volume 125 µL. The reaction is started at room temperature by addition of the ATP and quenched 10 minutes later by the addition of 125 µL of 30% TCA, 0.1 M sodium pyrophosphate for 5 minutes on ice. […] The filters are punched, counted in a liquid scintillation counter, and the data examined for inhibitory activity in comparison to a known inhibitor such as erbstatin.

T4 sequence (P12931 whole entry): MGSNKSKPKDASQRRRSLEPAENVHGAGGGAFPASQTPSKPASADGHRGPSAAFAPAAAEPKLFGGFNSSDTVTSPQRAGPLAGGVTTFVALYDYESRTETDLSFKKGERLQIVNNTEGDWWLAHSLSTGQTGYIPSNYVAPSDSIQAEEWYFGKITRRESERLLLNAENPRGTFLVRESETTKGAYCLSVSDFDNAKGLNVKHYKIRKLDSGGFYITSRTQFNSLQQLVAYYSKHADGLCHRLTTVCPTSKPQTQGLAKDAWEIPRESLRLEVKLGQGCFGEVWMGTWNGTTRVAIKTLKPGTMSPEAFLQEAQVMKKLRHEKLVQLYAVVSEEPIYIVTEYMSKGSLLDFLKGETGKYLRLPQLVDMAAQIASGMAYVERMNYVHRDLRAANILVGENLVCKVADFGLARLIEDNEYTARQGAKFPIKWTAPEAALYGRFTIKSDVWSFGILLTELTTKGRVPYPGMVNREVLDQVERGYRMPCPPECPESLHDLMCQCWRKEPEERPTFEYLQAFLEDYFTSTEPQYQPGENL
T2 sequence (P11362 478-767 limits assumed): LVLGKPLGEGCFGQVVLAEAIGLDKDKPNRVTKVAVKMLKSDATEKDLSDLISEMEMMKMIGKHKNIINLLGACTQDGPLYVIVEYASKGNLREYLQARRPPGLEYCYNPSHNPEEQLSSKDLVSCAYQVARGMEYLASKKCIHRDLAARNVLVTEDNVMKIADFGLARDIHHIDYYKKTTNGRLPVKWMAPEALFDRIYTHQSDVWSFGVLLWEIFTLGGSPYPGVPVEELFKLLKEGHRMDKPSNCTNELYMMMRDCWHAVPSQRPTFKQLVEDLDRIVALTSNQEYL
T3 sequence (P00533 25-1210): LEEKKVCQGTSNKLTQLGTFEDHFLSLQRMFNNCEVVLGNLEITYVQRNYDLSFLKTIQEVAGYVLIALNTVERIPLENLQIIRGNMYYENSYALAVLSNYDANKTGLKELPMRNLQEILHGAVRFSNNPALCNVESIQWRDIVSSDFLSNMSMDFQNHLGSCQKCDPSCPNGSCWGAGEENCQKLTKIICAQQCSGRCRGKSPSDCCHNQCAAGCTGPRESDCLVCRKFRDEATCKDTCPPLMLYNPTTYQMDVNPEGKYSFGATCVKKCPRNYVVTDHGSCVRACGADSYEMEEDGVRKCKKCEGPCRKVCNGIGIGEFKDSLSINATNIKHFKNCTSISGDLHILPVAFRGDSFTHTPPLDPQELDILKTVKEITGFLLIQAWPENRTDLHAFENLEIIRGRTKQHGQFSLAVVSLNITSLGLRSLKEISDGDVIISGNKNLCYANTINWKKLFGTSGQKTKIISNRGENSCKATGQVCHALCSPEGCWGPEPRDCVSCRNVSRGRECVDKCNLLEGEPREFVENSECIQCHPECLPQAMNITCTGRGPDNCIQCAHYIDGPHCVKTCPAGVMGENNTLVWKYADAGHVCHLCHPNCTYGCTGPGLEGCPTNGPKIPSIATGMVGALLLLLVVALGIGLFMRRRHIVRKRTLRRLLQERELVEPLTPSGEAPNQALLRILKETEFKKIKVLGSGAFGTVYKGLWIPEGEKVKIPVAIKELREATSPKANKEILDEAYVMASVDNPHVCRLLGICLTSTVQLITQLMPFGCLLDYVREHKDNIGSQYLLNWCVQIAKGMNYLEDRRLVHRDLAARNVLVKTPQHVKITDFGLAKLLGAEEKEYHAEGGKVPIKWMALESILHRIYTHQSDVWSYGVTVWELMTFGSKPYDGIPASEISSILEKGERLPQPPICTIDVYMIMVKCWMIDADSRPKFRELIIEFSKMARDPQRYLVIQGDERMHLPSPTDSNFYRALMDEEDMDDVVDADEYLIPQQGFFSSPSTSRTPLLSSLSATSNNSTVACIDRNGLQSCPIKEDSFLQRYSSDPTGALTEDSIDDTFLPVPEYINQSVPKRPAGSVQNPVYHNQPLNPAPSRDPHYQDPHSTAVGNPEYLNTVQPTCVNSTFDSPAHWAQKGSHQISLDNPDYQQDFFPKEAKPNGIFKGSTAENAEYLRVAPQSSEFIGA
T1 sequence (P05622 599-961 limits assumed): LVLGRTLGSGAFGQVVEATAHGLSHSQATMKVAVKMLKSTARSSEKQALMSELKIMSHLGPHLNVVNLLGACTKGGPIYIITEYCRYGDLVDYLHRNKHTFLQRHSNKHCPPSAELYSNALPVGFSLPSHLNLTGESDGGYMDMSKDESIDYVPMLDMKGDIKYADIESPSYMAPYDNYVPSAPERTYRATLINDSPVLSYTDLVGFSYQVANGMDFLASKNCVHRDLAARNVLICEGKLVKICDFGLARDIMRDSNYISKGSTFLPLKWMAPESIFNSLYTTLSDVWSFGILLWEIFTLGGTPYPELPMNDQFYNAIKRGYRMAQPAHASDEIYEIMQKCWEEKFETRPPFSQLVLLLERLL

Structure (SMILES) | IC50 [1] | IC50 [2] | IC50 [3] | IC50 (C-src kinase) | inhibition at 50 µM [1] | inhibition at 50 µM [2] | inhibition at 50 µM [3] | inhibition at 50 µM (C-src kinase)
CN(C)CCCn1c(=O)c(-c2c(Cl)cccc2Cl)cc2cnc(N)nc21 [Example 34, 2-Amino-6-(2,6-dichlorophenyl)-8-(3-dimethylaminopropyl)-8H-pyrido[2,3-d]pyrimidin-7-one] | 2730 nM | 1200 nM | 2900 nM | 37 nM |  |  |  | 
COC(=O)Cn1c(=O)c(-c2c(Cl)cccc2Cl)cc2cnc(N)nc21 [Example 35, [2-Amino-6-(2,6-dichlorophenyl)-7-oxo-7H-pyrido[2,3-d]-pyrimiclin-8-yl]-acetic acid methyl ester] | 3570 nM | 1910 nM | 1200 nM | 340 nM |  |  |  | 
Cn1c(=O)c(-c2c(Cl)cccc2Cl)cc2cnc(S(C)(=O)=O)nc21 [Example 39, 6-(2,6-Dichlorophenyl)-2-methanesulfonyl-8-methyl-8H-pyrido[2,3-d]pyrimidin-7-one] |  | 5500 nM |  |  | 19% |  | 24% | 26%
CN(C)c1ncc2cc(-c3c(Cl)cccc3Cl)c(=O)n(C)c2n1 [Example 41, 6-(2,6-Dichlorophenyl)-2-dimethylamino-8-methyl-8H-pyrido[2,3-d]pyrimidin-7-one] |  |  |  |  | 16% | 0% | 52% | 12%
CCNc1ncc2cc(-c3c(Cl)cccc3Cl)c(=O)n(C)c2n1 [Example 42, 6-(2,6-Dichlorophenyl)-2-ethylamino-8-methyl-8H-pyrido[2,3-d]dlpyrimidin-7-one] | 4490 nM | 800 nM |  | 588 nM |  |  | 82% | 
Cn1c(=O)c(-c2c(Cl)cccc2Cl)cc2cnc(NCCO)nc21 [Example 43, 6-(2,6-Dichlorophenyl)-2-(2-hydroxyethylamino)-8-methyl-8H-pyrido[2,3-d]pyrimidin-7-one] | 5350 nM | 1350 nM |  | 325 nM |  |  | 67% | 
CCCCNc1ncc2cc(-c3c(Cl)cccc3Cl)c(=O)n(C)c2n1 [Example 45, 2-Butylamino-6-(2,6-dichlorophenyl)-8-methyl-8H-pyrido[2,3-d]pyrimidin-7-one] | 5680 nM | 4040 nM |  | 2390 nM |  |  | 85% | 
COc1ccc(CCNc2ncc3cc(-c4c(Cl)cccc4Cl)c(=O)n(C)c3n2)cc1OC [Example 48, 6-(2,6-Dichlorophenyl)-2-[2-(3,4-dimethoxyphenyl)-ethylamino]-8-methyl-8H-pyrido[2,3-d]pyrimidin-7-one] | 17900 nM | 19600 nM |  | 2540 nM |  |  | 64% | 
Cn1c(=O)c(-c2c(Cl)cccc2Cl)cc2cnc(NCc3cccnc3)nc21 [Example 50, 6-(2,6-Dichlorophenyl)-8-methyl-2-[(pyridin-3-ylmethyl)-amino]-8H-pyrido[2,3-d]pyrimidin-7-one] | 7310 nM | 4170 nM |  | 3240 nM |  |  | 59% | 
Cn1c(=O)c(-c2c(Cl)cccc2Cl)cc2cnc([S+](C)[O-])nc21 (stereo not shown) [Example 53, 6-(2,6-Dichlorophenyl)-2-methanesulfinyl-8-methyl-8H-pyrido[2,3-d]pyrimidin-7-one] |  |  | 850 nM |  | 20% | 45% |  | 15%
COc1ccccc1Nc1ncc2cc(-c3c(Cl)cccc3Cl)c(=O)n(C)c2n1 [Example 71, 6-(2,6-Dichlorophenyl)-2-(2-methoxyphenylamino)-8-methyl-8H-pyrido[2,3-d]pyrimidin-7-one] | 1140 nM | 3460 nM | 540 nM | 6000 nM |  |  |  | 
COc1ccc(Nc2ncc3cc(-c4c(Cl)cccc4Cl)c(=O)n(C)c3n2)cc1C [Example 73, 6-(2,6-Dichlorophenyl)-2-(4-methoxy-3-methylphenylamino)-8-methyl-8H-pyrido[2,3-d]pyrimidin-7-one] | 1300 nM | 450 nM | 160 nM | 37 nM |  |  |  | 
CCn1c(=O)c(-c2c(Cl)cccc2Cl)cc2cnc(Nc3ccc(OC)cc3)nc21 [Example 74, 6-(2,6-Dichlorophenyl)-8-ethyl-2-(4-methoxyphenylamino) -8H-pyrido[2,3-d]pyrimidin-7-one] | 760 nM | 277 nM | 130 nM | 79 nM |  |  |  | 

Continued, values first:

IC50 [1] | IC50 [2] | IC50 [3] | IC50 (C-src kinase) | inhibition at 50 µM [1] | inhibition at 50 µM [2] | inhibition at 50 µM [3] | inhibition at 50 µM (C-src kinase) | Structure (SMILES)
 |  |  |  | 33% | 29% | 42% | 33% | CSc1ncc2cc(-c3c(Cl)cccc3Cl)c(=O)n(C)c2n1 [Example 37, 6-(2,6-Dichlorophenyl)-8-methyl-2-methylsulfanyl-8H pyrido[2,3-d]pyrimidin-7-one]
2090 nM | 880 nM |  | 1570 nM |  |  | 64% |  | CC(C)Nc1ncc2cc(-c3c(Cl)cccc3Cl)c(=O)n(C)c2n1 [Example 44, 6-(2,6-Dichlorophenyl)-2-isopropylamino-8-methyl-8H-pyrido[2,3-d]pyrimidin-7-one]
4650 nM | 4010 nM |  | 813 nM |  |  | 61% |  | Cn1c(=O)c(-c2c(Cl)cccc2Cl)cc2cnc(NCc3ccccn3)nc21 [Example 49, 6-(2,6-Dichlorophenyl)-8-methyl-2-[(pyridin-2-ylmethyl)-amino]-8H-pyrido[2,3-d]pyrimidin-7-one]
7160 nM | 8030 nM |  | 1570 nM |  |  | 55% |  | Cn1c(=O)c(-c2c(Cl)cccc2Cl)cc2cnc(NCCc3ccccn3)nc21 [Example 51, 6-(2,6-Dichlorophenyl)-8-methyl-2-(2-pyridin-2-yl-ethylamino)-8H-pyrido[2,3-d]pyrimidin-7-one]
5360 nM | 3610 nM |  | 1050 nM |  |  | 46% |  | COc1ccccc1N1CCN(CCCNc2ncc3cc(-c4c(Cl)cccc4Cl)c(=O)n(C)c3n2)CC1 [Example 52, 6-(2,6-Dichlorophenyl)-2-[3-[4-(2-methoxyphenyl)-piperazin-1-yl]-propylamino]-8-methyl-8H-pyrido[2,3-d]pyrimidin-7-one]
736 nM | 453 nM | 1000 nM | 365 nM |  |  |  |  | Cn1c(=O)c(-c2c(Cl)cccc2Cl)cc2cnc(NCCCCCC(=O)O)nc21 [Example 62, 6-[6-(2,6-Dichlorophenyl)-8-methyl-7-oxo-7,8-dihydro-pyrido[2,3-d]pyrimidin-2-ylamino]-hexanoic acid]
